Columns and labels:
[1] = in vivo; cited from earlier work
[2] = mDixon signal intensity of whole venous blood samples containing Ablavar; assay type: physicochemical
Method: Six in vitro whole venous blood samples each contained a different concentration (0, 2, 4, 6, 8, and 12 mM) of gadofosveset trisodium (Ablavar). For long echo time pairs (e.g., 11.5 ms/12.7 ms), the signal intensity decreased rapidly with Ablavar concentration greater than about 4 mM.

## O=C([O-])CN(CCN(CC(=O)[O-])CC(COP(=O)([O-])OC1CCC(c2ccccc2)(c2ccccc2)CC1)N(CC(=O)[O-])CC(=O)[O-])CC(=O)[O-].[Gd+3].[Na+].[Na+].[Na+] (stereo not drawn) [Ablavar, gadofosveset trisodium]
[1]
  half-life: about 30 minutes
[2]; 12 mM Ablavar, echo times as short as 6.9 ms/8.1 ms
  signal intensity relative to pure blood: below that of pure blood
[2]; long echo time pairs (e.g., 11.5 ms/12.7 ms)
  Ablavar concentration above which signal intensity decreased rapidly: greater than 4 mM
